Reference: the CATMoS acute toxicity set (Mansouri et al. 2021)

Experiment: GHS categories as the set defines them, by LD50: 1 up to 5, 2 up to 50, 3 up to 300, 4 up to 2000, 5 above 2000 mg/kg
Details: rat; in vivo; po

SMILES	GHS category
COc1nn(C(=O)NS(=O)(=O)c2ccccc2OC(F)(F)F)c(=O)n1C	5
COC(=O)CC(N)=S	4
CC(C)(CO)CO	5
Fc1ccccc1C1c2cc3c(cc2CCN1c1ccccc1)OCO3 (centres undefined)	4
CCCC1CCC(=O)O1 (centres undefined)	5
C=CCCCCCCCCC(C)CCCCCCCC (centres undefined)	5
Cc1ncoc1C(N)=O	5
CC1COc2ccccc2N1C(=O)C(Cl)Cl (centres undefined)	5
CC(C)=CCCC(C)C=O (centres undefined)	5
CCN(CC)CCc1nc(-c2cccc(O)c2)no1	5
CC(C)(C)C(O)/C=C/c1ccc2c(c1)OCO2 (centres undefined)	5
CCN(CC)CCC1=NC(=C2C=CC=CC2=O)NO1	5
CCCCOC(=O)c1ccc(-n2nc(OCCCN3CCCCC3)c3ccccc32)cc1	4
C[C@@H]1O[C@@H]1P(=O)(O)O	5
Cn1c(=O)c2c(ncn2CC(=O)N2CCOCC2)n(C)c1=O	5
CCOC(=O)C(=O)Nc1nc(-c2ccccc2)cs1	5
C[C@H]1CCCC(=O)CCCC=Cc2cc(O)cc(O)c2C(=O)O1	5
CCCCCOC(=O)CC	5
O=C(Nc1ccc(Cl)c(Cl)c1)c1cc(Cl)cc(-c2ccccc2)c1O	4
CC(C)CCC[C@@H](C)[C@H]1CC[C@H]2[C@@H]3CC=C4C[C@@H](O)CC[C@]4(C)[C@H]3CC[C@]12C	5
CC1CCC(C(C)C)C(OCC(O)CO)C1 (centres undefined)	5
Clc1ccc(C(c2ccccc2Cl)C(Cl)Cl)cc1 (centres undefined)	5
CCCCCCC(COC(=O)c1cccnc1)(COC(=O)c1cccnc1)COC(=O)c1cccnc1	5

SMILES	GHS category
Cc1c(C)c2c(c(C)c1OC(=O)CCC(=O)O)CC[C@@](C)(CCC[C@H](C)CCC[C@H](C)CCCC(C)C)O2	5
CC12CCC3C(CC=C4C=C(N5CCCC5)CCC43C)C1CCC2=O (centres undefined)	5
NC(N)=Nc1nc2c(s1)CN(C(=O)NC1CC1)CC2	4
COc1cc2nc(N3CCC(N(C)C(=O)c4ccco4)CC3)nc(N)c2cc1OC	4
CCCCCCCCOc1ccc(-c2ccc(C#N)cc2)cc1	5
COc1ccc2c(c1)CCN(c1ccccc1)C2c1ccccc1F (centres undefined)	4
O=C(Nc1ccccc1C(=O)O)C(=Cc1ccccc1)C(=O)Nc1ccccc1C(=O)O	5
Nc1ccc(NCCO)c([N+](=O)[O-])c1	4
CCCC(=O)O[C@]1(C(=O)CCl)[C@@H](C)C[C@H]2[C@@H]3CCC4=CC(=O)C=C[C@]4(C)[C@@]3(F)C(=O)C[C@@]21C	5
CCC[Si](OCC)(OCC)OCC	5
CCCCC1OC(C)CC(C)(C)O1 (centres undefined)	5
CCCCC(CC)C(=O)OC (centres undefined)	5
CCOc1nn(-c2cccc(C(F)(F)F)c2)c2ncccc12	4
CC(=O)OCCCCCCCCCOC(C)=O	5
O=C(O)C(c1ccccc1Cl)N1CCc2sccc2C1 (centres undefined)	5
O=C1CCCCCCCCCCOCCCCO1	5
CC(C)=CCN(CC=C(C)C)CCC(C)(C#N)c1cccc2ccccc12 (centres undefined)	4
Cn1nnnc1SCCCSc1ccncc1	4
CCCCC(=O)O[C@]1(C(=O)CO)[C@H](C)C[C@H]2[C@@H]3CCC4=CC(=O)C=C[C@]4(C)[C@@]3(F)[C@@H](O)C[C@@]21C	5
CCCC(=O)O[C@]1(C(=O)CO)CC[C@H]2[C@@H]3CCC4=CC(=O)CC[C@]4(C)[C@H]3[C@@H](O)C[C@@]21C	5
CC(c1ccc2c(c1)Cc1ccccc1-2)S(=O)CC(=O)O (centres undefined)	4
CCC1(C2=CCCCCC2)C(=O)NC(=O)NC1=O	5
CCCN[C@H]1CCc2nc(N)sc2C1	4

SMILES	GHS category
CCCCCCCCCC	5
O=C(O[C@H]1[C@H](OC(=O)c2cccnc2)[C@@H](OC(=O)c2cccnc2)[C@H](OC(=O)c2cccnc2)[C@@H](OC(=O)c2cccnc2)[C@H]1OC(=O)c1cccnc1)c1cccnc1	5
CCC(CC)Nc1nnc(-c2ccccc2)c2ccccc12	5
CCCCC/C=C\C/C=C\CCCCCCCC(=O)NC(C)c1ccccc1 (centres undefined)	5
CC(C)(C)CC(C)(C)c1ccc(O)c(Cc2ccc(Cl)cc2Cl)c1	5
C=COCCOCCOC(=O)C=C	4
NCC(O)CCl (centres undefined)	4
Cc1cc(C)[n+]([N-]C(=O)c2ccc(Cl)c(S(N)(=O)=O)c2)c(C)c1	5
O=C(NCc1ncc(C(F)(F)F)cc1Cl)c1c(Cl)cccc1Cl	5
CC1N=C(c2ccccc2Cl)c2c(ccc(NC(=O)NCCO)c2Br)N(C)C1=O (centres undefined)	5
Cc1cccc(NC(=O)c2cc(C)[nH]n2)c1	5
O=C1c2ccccc2C(=O)c2c(Nc3ccccc3)ccc(O)c21	5
Cc1cccc(OC(=O)c2ccccc2OC(N)=O)c1	5
CCNC(=O)CCSCc1nnnn1-c1ccccc1	4
CC(C)(C)C1=CC(=Cc2ccccc2)C=C(C(C)(C)C)C1=O	5
CCCCOC(=O)C1(O)c2ccccc2-c2ccccc21	5
O=C(Cn1cnnn1)N[C@@H]1C(=O)N2C(C(=O)O)=C(CSc3nncs3)CS[C@H]12	5
O=C(O)c1cc(Nc2ccccc2)c(C(=O)O)cc1Nc1ccccc1	5
CCOCC(O)COc1ccc(NC(=O)CC[S+](C)C)cc1 (centres undefined)	5
CC(C)(C)c1ccc(C(=O)CCCN2CCC(OC(c3ccccc3)c3ccccc3)CC2)cc1	5
CCN(CCOC(C)=O)c1ccc(N=Nc2nc3ccc(Cl)cc3s2)cc1	5
O=[N+]([O-])c1ccc(OP(=S)(Oc2ccc([N+](=O)[O-])cc2)Oc2ccc([N+](=O)[O-])cc2)cc1	5
CO/N=C(/C(=O)N[C@@H]1C(=O)N2C(C(=O)O)=C(CSc3cnns3)CS[C@H]12)c1csc(N)n1	5

SMILES	GHS category
Cc1cc(C)cc(N2C(=O)c3ccc4c5ccc6c7c(ccc(c8ccc(c3c48)C2=O)c75)C(=O)N(c2cc(C)cc(C)c2)C6=O)c1	5
CCOc1ccccc1NC(=O)C(=O)Nc1ccccc1CC	5
CC1(C)Oc2cc(C(=O)c3ccccc3)ccc2NC1=O	5
CCNC(=O)CCCSCc1nnnn1CC	4
c1ccc2c(c1)CCc1ccccc1N2	5
CCS(=O)(=O)CCC(=O)NNC(=O)N1Cc2ccccc2Oc2ccc(Cl)cc21	5
CNCc1ccc(CSCCN/C(=N/S(C)(=O)=O)NCC(O)c2ccc(O)cc2)o1 (centres undefined)	5
FC(F)(Cl)C(Cl)(Cl)Cl	5
CC(C)[C@@H]1CC[C@@H](C)C[C@H]1OC(=O)Cc1ccccc1	5
CC(C)N1C2CCC1CC(=O)C2	3
CC(O)CN(CC(C)O)C(=O)CCCCC(=O)N(CC(C)O)CC(C)O (centres undefined)	5
CN1C(=O)COc2cc(C(=O)c3ccc(Cl)cc3)ccc21	5
Cc1c(N)nc(C(CC(N)=O)NCC(N)C(N)=O)nc1C(=O)NC(C(=O)NC(C)C(O)C(C)C(=O)NC(C(=O)NCCc1nc(-c2nc(C(=O)NCCCN[C@@H](C)c3ccccc3)cs2)cs1)C(C)O)C(O[C@@H]1O[C@@H](CO)[C@@H](O)[C@H](O)[C@@H]1O[C@H]1O[C@H](CO)[C@@H](O)[C@H](OC(N)=O)[C@@H]1O)c1c[nH]cn1 (some centres undefined)	5
CC(=O)NC(C(=O)O)C(C)(C)S (centres undefined)	4
CC1=CC2[C@@H](C(=O)O1)C2(C)C (some centres undefined)	5
C=C(C)C1CCC(C)=C1CC(C)(C)COC(=O)CC (centres undefined)	5
CCN(C(=O)CCCSc1nnnn1C)c1ccccc1	4
c1ccc(C2c3ccccc3CCN2c2ccccc2)cc1 (centres undefined)	4
COc1cccc(C(=O)NN(C(=O)c2cc(C)cc(C)c2)C(C)(C)C)c1C	5
CCCOC(=O)c1ccc(O)cc1	5
COc1cccc(N(C)C(=S)Oc2cccc(C(C)(C)C)c2)n1	5
COc1ccc(C(=O)Nc2ccccc2)cc1N	5
COCC1CN(c2ccc(OCc3cccc(C#N)c3)cc2)C(=O)O1 (centres undefined)	5

SMILES	GHS category
CCC(C)n1ncn(-c2ccc(N3CCN(c4ccc(OC[C@H]5CO[C@](Cn6cncn6)(c6ccc(Cl)cc6Cl)O5)cc4)CC3)cc2)c1=O (some centres undefined)	4
Cc1cccc(C)c1OP(=O)(Oc1cccc(OP(=O)(Oc2c(C)cccc2C)Oc2c(C)cccc2C)c1)Oc1c(C)cccc1C	5
CCCc1nc2c(C)cc(-c3nc4ccccc4n3C)cc2n1Cc1ccc(-c2ccccc2C#N)cc1	5
CCCCCCCCCCCCCCCC[Si](OC)(OC)OC	5
CNC(=O)Oc1cccc2c1OCO2	3
CSCC[C@H](NC(=O)CCSC(=O)c1ccccc1)C(=O)O	5
O=C(Cc1cccs1)N[C@@H]1C(=O)N2C(C(=O)O)=C(CO)CS[C@H]12	5
CC1N=C(c2ccccc2Cl)c2c(ccc(NC(=O)NCCO)c2Cl)N(C)C1=O (centres undefined)	5
O=C1CCC(N2C(=O)c3ccccc3C2=O)C(=O)N1CN1CCOCC1 (centres undefined)	5
CN(C)CCSc1nc2ccccc2cc1-c1ccccc1	4
NC(=O)Oc1ccccc1C(=O)Oc1cc(Cl)ccc1Cl	5
CCO[Si](CC(C)C)(OCC)OCC	5
CC(CO)C1CCCCCCCCCCC1 (centres undefined)	5
Cc1cccc2ncc(C(=O)Nc3ccc(Cl)cc3)c(=O)n12	3
O=C1NCCCN1CN1CCOCC1	5
Cc1ccc(C(C)C)cc1OC(=O)c1ccccc1Nc1cccc(C)c1C	5
CC(O)CCCCO (centres undefined)	5
C#CCOc1cc(-n2nc3n(c2=O)CCCC3)c(Cl)cc1Cl	5
CC(=O)OCC(=O)[C@@]1(O)CC[C@H]2[C@@H]3C[C@H](C)C4=CC(=O)C=C[C@]4(C)[C@H]3[C@@H](O)C[C@@]21C	5
O=[N+]([O-])c1ccc(C=NOCc2cccc([N+](=O)[O-])c2)cc1	4
Nc1cc(Cl)c(Cl)cc1Cl	5
CCCCC(CC)COC(=O)c1ccc(C(=O)OCC(CC)CCCC)c(C(=O)OCC(CC)CCCC)c1 (centres undefined)	5
